We go through ten compounds from ChEMBL document CHEMBL1201862, “PubChem BioAssay data set” (2004).

Among the test systems are BT-549; CAKI-1; CCRF-CEM; DU-145; HCC 2998; HCT-116; HCT-15; HOP-62; IGROV-1; MDA-MB-231; Malme-3M; NCI-H522; NCI/ADR-RES; OVCAR-3; OVCAR-4; OVCAR-5; RXF 393; SK-MEL-5; T47D; UACC-257.
Common to all, as to experiment: NCI-60 cell line screen, 48 h

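Grown in 96-well plates, cells were treated for 48 hours with each compound at five concentrations. Insufficient inhibition: endpoint recorded as highest concentration tested. GI50 = concentration required for 50% inhibition of growth.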 Active and inactive are the calls of the source. Cut-off read from the data, not from the text of the source: active = GI50 up to about 1.1 µM and inactive = higher. Some results are limits rather than exact numbers.

As to `CC1=C2NCN(C)N=C2C(C#N)(C#N)C1(C#N)C#N`, the GI50 was 21.6 µM (inactive) in the experiment on BT-549; 5.97 µM (inactive) with CAKI-1; 2.22 µM (inactive) in the experiment with CCRF-CEM; 42.3 µM (inactive) in the experiment with DU-145; 21 µM (inactive) with HCC 2998; 23.1 µM (inactive) in the experiment on HCT-116. The GI50 is 21 µM with HCT-15; > 55.2 µM (inactive) in the experiment with HOP-62; 24.8 µM (inactive) in the experiment with IGROV-1; 19.6 µM (inactive) in the experiment on MDA-MB-231; 20.4 µM (inactive) in the experiment on Malme-3M; 8.87 µM (inactive) in the experiment with NCI-H522. In addition, the GI50 is 28.6 µM (inactive) in the experiment with NCI/ADR-RES; 20.4 µM (inactive) in the experiment on OVCAR-3; 20 µM (inactive) in the experiment on OVCAR-4; 33.5 µM (inactive) in the experiment on OVCAR-5; 19.1 µM (inactive) with RXF 393; 27.4 µM (inactive) in the experiment on SK-MEL-5. Moreover, the GI50 with T47D is 21.7 µM (inactive); in the experiment on UACC-257 it was 17 µM (inactive).
With `O=C1c2ccccc2-n2c1nc1cc(Cl)ccc1c2=O`, the GI50 with BT-549 was > 100 µM (inactive); with CAKI-1 it was 36.8 µM (inactive); in the experiment with CCRF-CEM it was 3.84 µM (inactive); in the experiment with DU-145 it was 24.1 µM (inactive); with HCC 2998, > 100 µM (inactive); in the experiment with HCT-116, > 100 µM (inactive). Further, the GI50 in the experiment with HCT-15 is 21.2 µM; in the experiment with HOP-62, 81.7 µM (inactive); in the experiment with IGROV-1, 33.3 µM (inactive); with MDA-MB-231 it was > 100 µM (inactive); in the experiment with Malme-3M it was 6.7 µM (inactive); in the experiment with NCI-H522, 29.9 µM (inactive). Besides, the GI50 in the experiment on NCI/ADR-RES was > 100 µM (inactive); with OVCAR-3 it was 23 µM (inactive); in the experiment on OVCAR-4, 27.7 µM (inactive); in the experiment on OVCAR-5, > 100 µM (inactive); in the experiment on RXF 393, 55.7 µM (inactive); in the experiment on SK-MEL-5, 20 µM (inactive). The GI50 was 0.807 µM (active) in the experiment with T47D and 9.68 µM (inactive) in the experiment on UACC-257.
On to `CCOc1cc(C(=O)O)c2c(ccc3ccc(OC)c(OC)c32)c1OC`, for which the GI50 in the experiment on BT-549, with CAKI-1, in the experiment with CCRF-CEM, in the experiment with DU-145, with HCC 2998 and in the experiment on HCT-116 was > 100 µM (inactive) in each case. For the same compound, the GI50 in the experiment with HCT-15 is more than 100 µM; with HOP-62, > 100 µM (inactive); in the experiment with IGROV-1, > 100 µM (inactive); with MDA-MB-231 it was > 100 µM (inactive); in the experiment with Malme-3M, > 100 µM (inactive); in the experiment on NCI-H522 it was > 100 µM (inactive). For the same compound, the GI50 with NCI/ADR-RES, with OVCAR-3, in the experiment on OVCAR-4, in the experiment on OVCAR-5, in the experiment with RXF 393 and in the experiment with SK-MEL-5 was > 100 µM (inactive) throughout. Also, the GI50 in the experiment with T47D and in the experiment on UACC-257 was > 100 µM (inactive) throughout.
Consider `COC(=O)c1cc(C)ccc1CC(Cc1ccc(C)cc1)C(=O)OC` (stereo not given), for which the GI50 was > 100 µM (inactive) in the experiment on BT-549; 36.6 µM (inactive) in the experiment with CAKI-1; 62.8 µM (inactive) in the experiment on CCRF-CEM; > 33 µM (inactive) in the experiment on DU-145; 25.8 µM (inactive) in the experiment with HCC 2998; 10.5 µM (inactive) in the experiment with HCT-116. Further, the GI50 in the experiment with HCT-15 is 10.9 µM; in the experiment with HOP-62, > 100 µM (inactive); in the experiment with IGROV-1 it was 72.4 µM (inactive); with MDA-MB-231, 31.9 µM (inactive); in the experiment on Malme-3M it was 22 µM (inactive); in the experiment with NCI-H522, 7.06 µM (inactive). In addition, the GI50 with NCI/ADR-RES is 23.7 µM (inactive); with OVCAR-3, > 100 µM (inactive); with OVCAR-4, 38.8 µM (inactive); in the experiment with OVCAR-5, 9.86 µM (inactive); in the experiment with RXF 393 it was 2.87 µM (inactive); in the experiment on SK-MEL-5, 3.48 µM (inactive). Besides, the GI50 in the experiment with T47D is 30.8 µM (inactive); in the experiment with UACC-257, 9.89 µM (inactive).
As for `CCCCCC(=O)n1[nH]c(=O)n(-c2ccc(OC)cc2)c1=O`, the GI50 with BT-549, in the experiment with CAKI-1, with CCRF-CEM, in the experiment on DU-145, in the experiment with HCC 2998 and in the experiment with HCT-116 was > 100 µM (inactive) in each case. Besides, the GI50 is more than 100 µM in the experiment on HCT-15; > 100 µM (inactive) in the experiment with HOP-62; > 100 µM (inactive) in the experiment on IGROV-1; > 100 µM (inactive) with MDA-MB-231; 63.1 µM (inactive) in the experiment on Malme-3M; 57.5 µM (inactive) with NCI-H522. The GI50 in the experiment with NCI/ADR-RES, in the experiment on OVCAR-3, in the experiment with OVCAR-4, with OVCAR-5, in the experiment on RXF 393 and in the experiment with SK-MEL-5 was > 100 µM (inactive) each time. Further, the GI50 in the experiment with T47D and in the experiment with UACC-257 was > 100 µM (inactive) each time.
For the compound `CCCC(=O)NC(Nc1cc(C)ccn1)(C(=O)OCC)C(F)(F)F` (stereo not given), the GI50 in the experiment on BT-549, with CAKI-1, with CCRF-CEM, in the experiment with DU-145, with HCC 2998 and in the experiment with HCT-116 was > 100 µM (inactive) throughout. The GI50 in the experiment with HCT-15 was more than 100 µM; in the experiment with HOP-62 it was > 100 µM (inactive); in the experiment on IGROV-1 it was > 100 µM (inactive); with MDA-MB-231, > 100 µM (inactive); in the experiment with Malme-3M, > 100 µM (inactive); with NCI-H522, > 100 µM (inactive). In addition, the GI50 in the experiment on NCI/ADR-RES, in the experiment with OVCAR-3, with OVCAR-4, in the experiment on OVCAR-5, in the experiment with RXF 393 and in the experiment with SK-MEL-5 was > 100 µM (inactive) each time. The GI50 with T47D and with UACC-257 was > 100 µM (inactive) in each case.
Take `CC1CN=C(Nc2cccc(F)c2)S1` (stereo not given): the GI50 was > 100 µM (inactive) in the experiment on BT-549; > 100 µM (inactive) in the experiment on CAKI-1; 91 µM (inactive) with CCRF-CEM; > 100 µM (inactive) in the experiment with DU-145; > 100 µM (inactive) in the experiment on HCC 2998; > 100 µM (inactive) in the experiment on HCT-116. In addition, the GI50 with HCT-15 is more than 100 µM; in the experiment with HOP-62, > 100 µM (inactive); in the experiment with IGROV-1, > 100 µM (inactive); in the experiment on MDA-MB-231, 3.99 µM (inactive); in the experiment on Malme-3M, > 100 µM (inactive); in the experiment with NCI-H522, > 100 µM (inactive). For the same compound, the GI50 in the experiment on NCI/ADR-RES, with OVCAR-3, in the experiment with OVCAR-4, in the experiment with OVCAR-5, in the experiment with RXF 393 and with SK-MEL-5 was > 100 µM (inactive) throughout. Moreover, the GI50 in the experiment on T47D and with UACC-257 was > 100 µM (inactive) in each case.
As to `CC1=C(C(=O)Nc2ccc(Cl)c(C(=O)OC(C)C)c2)SCCO1`, the GI50 with BT-549 is > 100 µM (inactive); with CAKI-1 it was > 100 µM (inactive); in the experiment on CCRF-CEM it was 48.6 µM (inactive); in the experiment with DU-145, > 100 µM (inactive); with HCC 2998 it was 54.8 µM (inactive); with HCT-116 it was > 77.4 µM (inactive). The GI50 was 69 µM in the experiment on HCT-15; > 91.4 µM (inactive) in the experiment with HOP-62; 72.4 µM (inactive) in the experiment on IGROV-1; > 100 µM (inactive) in the experiment on MDA-MB-231; 47.3 µM (inactive) in the experiment with Malme-3M; 36.4 µM (inactive) in the experiment with NCI-H522. Besides, the GI50 in the experiment with NCI/ADR-RES is 66.2 µM (inactive); in the experiment with OVCAR-3, 86.1 µM (inactive); with OVCAR-4 it was 56.8 µM (inactive); with OVCAR-5, 47.9 µM (inactive); in the experiment with RXF 393, 48.1 µM (inactive); in the experiment on SK-MEL-5, 50.1 µM (inactive). In addition, the figures for the GI50 in the experiment with T47D and in the experiment on UACC-257 were 24.2 µM (inactive) and 62.1 µM (inactive), respectively.
Regarding `Brc1ccccc1/C=C\C1(c2ccccc2)OCCO1`, the GI50 with BT-549 was 18.3 µM (inactive); in the experiment on CAKI-1 it was 6.59 µM (inactive); with CCRF-CEM, 3.03 µM (inactive); with DU-145, 13.7 µM (inactive); in the experiment on HCC 2998 it was 15.7 µM (inactive); with HCT-116, 4.98 µM (inactive). Moreover, the GI50 is 6.38 µM with HCT-15; 14.5 µM (inactive) in the experiment with HOP-62; 13.6 µM (inactive) with IGROV-1; 9.27 µM (inactive) with MDA-MB-231; 15.9 µM (inactive) in the experiment with Malme-3M; 8.11 µM (inactive) in the experiment on NCI-H522. The GI50 with NCI/ADR-RES was 10.9 µM (inactive); in the experiment on OVCAR-3, 12.7 µM (inactive); in the experiment with OVCAR-4, 4.26 µM (inactive); with OVCAR-5 it was 15.3 µM (inactive); in the experiment on RXF 393 it was 13.9 µM (inactive); with SK-MEL-5 it was 15.2 µM (inactive). Further, the GI50 in the experiment on T47D was 15.2 µM (inactive); with UACC-257, 16.5 µM (inactive).
As for `CCOC(=O)C1=CC(C)(C(=O)OCC)Nc2c(nc(OC)n(C)c2=O)N1` (stereo not given), the GI50 in the experiment on BT-549, in the experiment with CAKI-1, in the experiment on CCRF-CEM, in the experiment on DU-145, with HCC 2998 and with HCT-116 was > 10 µM (inactive) throughout. Besides, the GI50 was more than 10 µM with HCT-15; > 10 µM (inactive) with HOP-62; > 10 µM (inactive) in the experiment with IGROV-1; > 10 µM (inactive) in the experiment with MDA-MB-231; > 10 µM (inactive) in the experiment on Malme-3M; > 10 µM (inactive) in the experiment on NCI-H522. Besides, the GI50 with NCI/ADR-RES, in the experiment on OVCAR-3, in the experiment on OVCAR-4, in the experiment with OVCAR-5, in the experiment with RXF 393 and with SK-MEL-5 was > 10 µM (inactive) in each case. Also, the GI50 in the experiment on T47D and in the experiment with UACC-257 was > 10 µM (inactive) throughout.
